Measurements reported in paper PMC12521909, “Camizestrant in Combination with Three Globally Approved CDK4/6 Inhibitors in Women with ER+, HER2− Advanced Breast Cancer: Results from SERENA-1” (Clinical Cancer Research, 2025).

How the values were obtained:
[1] = system: women with ER+, HER2− advanced breast cancer; assay: Digital, centrally read triplicate ECGs (resting heart rate, QTcF); parameters: species or system human; conditions: in vivo
Excerpt: Digital, centrally read, triplicate ECGs were obtained throughout the study.

[2] = Plasma pharmacokinetics by validated LC/MS-MS (cycle 1, day 15); type: in vivo; conditions: human, oral; for AUC / Cmax: Cycle 1 Day 15, geomean; for Tmax: Cycle 1 Day 15, median
Method: Details of safety and efficacy assessments and of ctDNA sampling and assessments have been described previously ([37]). For PK analyses, plasma concentrations of camizestrant, abemaciclib, palbociclib, and ribociclib were determined using validated LC/MS-MS.
Details of assessments and analysis sets have been described previously ([38]). Briefly, safety was assessed in the safety analysis set, and efficacy and antitumor activity were assessed in the evaluable-for-response set. PK was assessed in the PK analysis set, which included all patients who provided at least one quantifiable postdose PK concentration for either camizestrant or any of the other agents evaluated.

[3] = 75 mg, camizestrant 75 mg monotherapy
[4] = 150 mg, camizestrant 150 mg monotherapy
[5] = 300 mg, camizestrant 300 mg monotherapy
[6] = camizestrant 75 mg + abemaciclib
[7] = camizestrant 75 mg + palbociclib
[8] = camizestrant 75 mg + ribociclib (400 mg)
[9] = camizestrant 75 mg + ribociclib (600 mg)
[10] = camizestrant 150 mg + abemaciclib
[11] = camizestrant 150 mg + palbociclib
[12] = camizestrant 300 mg + palbociclib

AUC [2, 3]: 862 ng·h/mL
Cmax [2, 3]: 64.7 ng/mL
Tmax [2, 3]: 3.72 h
AUC [2, 4]: 2160 ng·h/mL
Cmax [2, 4]: 166 ng/mL
Tmax [2, 4]: 2.17 h
AUC [2, 5]: 4780 ng·h/mL
Cmax [2, 5]: 376 ng/mL
Tmax [2, 5]: 3 h
half-life ([2]; across combinations, PK sampled up to 24 hours, likely underestimated, read-out: Estimated half-life of camizestrant): 9.5 to 17 h
AUC [2, 6]: 1120 ng·h/mL
Cmax [2, 6]: 85.4 ng/mL
Tmax [2, 6]: 4 h
AUC [2, 7]: 1200 ng·h/mL
Cmax [2, 7]: 93.9 ng/mL
Tmax [2, 7]: 4 h
AUC [2, 8]: 2280 ng·h/mL
Cmax [2, 8]: 154 ng/mL
Tmax [2, 8]: 3.6 h
AUC [2, 9]: 2750 ng·h/mL
Cmax [2, 9]: 179 ng/mL
Tmax [2, 9]: 4 h
AUC [2, 10]: 2050 ng·h/mL
Cmax [2, 10]: 159 ng/mL
Tmax [2, 10]: 4 h
AUC [2, 11]: 2420 ng·h/mL
Cmax [2, 11]: 189 ng/mL
Tmax [2, 11]: 3.92 h
AUC [2, 12]: 4940 ng·h/mL
Cmax [2, 12]: 386 ng/mL
Tmax [2, 12]: 4 h
SMILES: C[C@@H]1Cc2c(ccc3[nH]ncc23)[C@@H](c2ccc(NC3CN(CCCF)C3)cn2)N1CC(F)(F)F [camizestrant]
Time of gradual decrease in resting HR to stable nadir [1]: approximately 14 days
